Measurements taken from patent US20240279207A1, “SUBSTITUTED ACYL SULFONAMIDES FOR TREATING CANCER” (The Broad Institute, Inc., priority 2020, published 2024).
Like-named read-outs stand apart in the source and are kept apart here.

Columns and labels:
[1] = target: T1, Recombinant human His-tagged Kat6a protein (amino acids 194-810) (Homo sapiens, UniProt Q92794); assay: Kat6a activity assay (TR-FRET, acetylation of Histone-H4-derived peptide); format: biochemical; conditions: 60 mins at 22° C., 220 nM H4 peptide, 600 nM Acetyl Coenzyme A, read-out: KAT6A - DPF/HAT domain IC50 [mol/l] (arithmetic mean)
T1 construct: Kat6a protein (amino acids 194-810); His
T1 sequence (Q92794 194-810): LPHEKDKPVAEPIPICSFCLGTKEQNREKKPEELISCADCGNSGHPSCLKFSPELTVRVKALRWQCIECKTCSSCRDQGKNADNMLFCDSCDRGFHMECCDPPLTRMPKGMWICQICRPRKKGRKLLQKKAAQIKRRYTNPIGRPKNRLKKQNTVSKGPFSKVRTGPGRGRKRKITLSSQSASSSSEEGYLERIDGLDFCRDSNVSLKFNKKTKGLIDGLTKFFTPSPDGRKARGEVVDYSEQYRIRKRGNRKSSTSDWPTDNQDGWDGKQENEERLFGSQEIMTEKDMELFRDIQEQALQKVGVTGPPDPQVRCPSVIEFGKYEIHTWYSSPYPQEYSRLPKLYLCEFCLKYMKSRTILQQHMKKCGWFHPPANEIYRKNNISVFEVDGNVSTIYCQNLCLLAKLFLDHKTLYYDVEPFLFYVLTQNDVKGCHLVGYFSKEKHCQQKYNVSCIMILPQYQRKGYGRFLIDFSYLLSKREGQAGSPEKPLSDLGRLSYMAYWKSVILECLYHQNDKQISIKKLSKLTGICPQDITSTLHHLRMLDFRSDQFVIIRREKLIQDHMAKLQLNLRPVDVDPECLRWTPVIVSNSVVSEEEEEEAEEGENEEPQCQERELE
Procedure: Kat6a inhibitory activities of the compounds described in the present invention were quantified using a Fluorescence Resonance Energy Transfer (TR-FRET) assay which measures acetylation of a synthetic, biotinylated Histone-H4-derived peptide by the enzyme.
In this case 50 nl DMSO were used instead of compounds. […] IC50 values were determined by regression analysis based on a 4 parameter equation (minimum, maximum, ICM, Hill; Y=Max+(Min−Max)/(1+(X/ICso) Hill) using the Screener Software (Genedata).

[2] = test system: ESR1 transcription in MVLN cells; assay: MVLN reporter assay: repression of ESR1 transcription (luciferase signal); format: cell-based; conditions: Homo sapiens, luciferase signal after 24 h, read-out: MVLN reporter assay, IC50 [M] (arithmetic mean)
Excerpt: KAT6A controls transcription of the ESR1 gene in breast cancer cells. Compound treatment that interferes with this mechanism was quantified using MVLN cells. These cells constitutively express the ER and are stably transfected with the luciferase (LUC) reporter gene and the corresponding hormone responsive element derived from the 5′-flanking region of the Xenopus Vitellogenin A2 gene (Pons et al., 1990, Demirpense et al., 1993, Joyeux et al., 1993). The repressive effect on ERα transcription activity of a test chemical is directly related to the luciferase measured in the lysate of treated MVLN cells. […] Each sample was prepared as duplicate and rim wells were excluded. For luciferase signal determination 100 μl of a 1:1 mixture of Steadylite plus (Perkin Elmer; 6016759) and assay medium was added after 24 h for 15 minutes and measured in Victor X3 (Perkin Elmer). To exclude any effects caused by cell loss during the treatment, cell density was determined using Alamar Blue (Invitrogen; DAL1100). Prior to the luciferase measurement 10 μl Alamar Blue were added to each well and the plates were incubated for 2 h in the incubator. Then fluorescence was measured with Victor X3 (Perkin Elmer) at 530 nm/590 nm.

CCOc1cccc(S(=O)(=O)NC(=O)c2cc3c(F)cc(N4CCC4)cc3o2)c1 [Example 75, 6-(Azetidin-1-yl)-N-(3-ethoxybenzene-1-sulfonyl)-4-fluoro-1-benzofuran-2-carboxamide]
IC50 [1]: 337 nM
IC50 ([2]; MVLN, 24 h): 2.76e-06 M

CC(C)Oc1cccc(C(F)(F)F)c1S(=O)(=O)NC(=O)c1cc2c(F)cc(N3CCC3)cc2o1 [Example 28, 6-(Azetidin-1-yl)-4-fluoro-N-{2-[(propan-2-yl)oxy]-6-(trifluoromethyl)benzene-1-sulfonyl}-1-benzofuran-2-carboxamide]
IC50 [1]: 136 nM
IC50 ([2]; MVLN, 24 h): 3.56e-07 M

CN(C)S(=O)(=O)c1ccc(Cl)c(S(=O)(=O)NC(=O)c2cc3c(F)cc(N4CCC4)cc3o2)c1 [Example 72, 6-(Azetidin-1-yl)-N-[2-chloro-5-(dimethylsulfamoyl)benzene-1-sulfonyl]-4-fluoro-1-benzofuran-2-carboxamide]
IC50 [1]: 159 nM
IC50 ([2]; MVLN, 24 h): 1.89e-05 M

CC(C)Nc1ccc(Cl)cc1S(=O)(=O)NC(=O)c1cc2c(F)cc(N3CCC3)cc2o1 [Example 49, 6-(Azetidin-1-yl)-N-{5-chloro-2-[(propan-2-yl)amino]benzene-1-sulfonyl}-4-fluoro-1-benzofuran-2-carboxamide]
IC50 [1]: 67.3 nM
IC50 ([2]; MVLN, 24 h): 1.41e-06 M

O=C(NS(=O)(=O)c1c[nH]c2ccccc12)c1cc2c(F)cc(N3CCC3)cc2o1 [Example 176, 6-(Azetidin-1-yl)-4-fluoro-N-(1H-indole-3-sulfonyl)-1-benzofuran-2-carboxamide]
IC50 [1]: 26.8 nM
IC50 ([2]; MVLN, 24 h): 1.88e-07 M

CCOc1ccccc1S(=O)(=O)NC(=O)c1cc2ccc(N3CC(C(F)(F)F)C3)cc2o1 [Example 117, N-(2-Ethoxybenzene-1-sulfonyl)-6-[3-(trifluoromethyl)azetidin-1-yl]-1-benzofuran-2-carboxamide]
IC50 [1]: 12900 nM
IC50 ([2]; MVLN, 24 h): 1.73e-05 M

CCN(CC)C(=O)Oc1ccccc1S(=O)(=O)NC(=O)c1cc2c(F)cc(N3CCC3)cc2o1 [Example 76, 2-{[6-(Azetidin-1-yl)-4-fluoro-1-benzofuran-2-carbonyl]sulfamoyl}phenyl diethylcarbamate]
IC50 [1]: 111 nM
IC50 [2]: 2.82e-06 M

CC1Cc2cccc(S(=O)(=O)NC(=O)c3cc4c(F)cc(N5CCC5)cc4o3)c2O1 (centres unmarked) [Example 18, 6-(Azetidin-1-yl)-4-fluoro-N-[2-methyl-2,3-dihydro-1-benzofuran-7-sulfonyl]-1-benzofuran-2-carboxamide]
IC50 [1]: 24.2 nM
IC50 ([2]; MVLN, 24 h): 1.92e-07 M

CCOc1ccccc1S(=O)(=O)NC(=O)c1cc2c(F)cc(N3CCC3CNC(=O)OC)cc2o1 (racemic) [Example 105, Methyl {[1-{2-[(2-ethoxybenzene-1-sulfonyl)carbamoyl]-4-fluoro-1-benzofuran-6-yl}azetidin-2-yl]methyl}carbamate (rac)]
IC50 [1]: 1120 nM
IC50 ([2]; MVLN, 24 h): > 2e-05 M

N#CCCc1ccc(S(=O)(=O)NC(=O)c2cc3c(F)cc(N4CCC4)cc3o2)cc1 [Example 68, 6-(Azetidin-1-yl)-N-[4-(2-cyanoethyl)benzene-1-sulfonyl]-4-fluoro-1-benzofuran-2-carboxamide]
IC50 [1]: 652 nM
IC50 ([2]; MVLN, 24 h): 1.26e-05 M

O=C(NS(=O)(=O)c1ccc(O)c2ccccc12)c1cc2c(F)cc(N3CCC3)cc2o1 [Example 106, 6-(Azetidin-1-yl)-4-fluoro-N-(4-hydroxynaphthalene-1-sulfonyl)-1-benzofuran-2-carboxamide]
IC50 [1]: > 20000 nM
IC50 ([2]; MVLN, 24 h): > 2e-05 M

COc1ccc(Br)cc1S(=O)(=O)NC(=O)c1cc2c(F)cc(N3CCC3)cc2o1 [Example 139, 6-(azetidin-1-yl)-N-(5-bromo-2-methoxybenzene-1-sulfonyl)-4-fluoro-1-benzofuran-2-carboxamide]
IC50 [1]: 41.3 nM
IC50 ([2]; MVLN, 24 h): 2.36e-07 M

CCOCc1ccc(Cl)c(S(=O)(=O)NC(=O)c2cc3c(F)cc(N4CCC4)cc3o2)c1 [Example 54, 6-(Azetidin-1-yl)-N-[2-chloro-5-(ethoxymethyl)benzene-1-sulfonyl]-4-fluoro-1-benzofuran-2-carboxamide]
IC50 [1]: 135 nM
IC50 ([2]; MVLN, 24 h): 1.72e-06 M

Cc1ccnc2c1c(S(=O)(=O)NC(=O)c1cc3c(F)cc(N4CCC4)cc3o1)nn2C [Example 146, 6-(Azetidin-1-yl)-N-(1,4-dimethyl-1H-pyrazolo[3,4-b]pyridine-3-sulfonyl)-4-fluoro-1-benzofuran-2-carboxamide]
IC50 [1]: 290 nM
IC50 ([2]; MVLN, 24 h): 2.83e-06 M

COc1cc(Br)ccc1S(=O)(=O)NC(=O)c1cc2c(F)cc(N3CCC3)cc2o1 [Example 174, 6-(Azetidin-1-yl)-N-(4-bromo-2-methoxybenzene-1-sulfonyl)-4-fluoro-1-benzofuran-2-carboxamide]
IC50 [1]: 26.5 nM
IC50 ([2]; MVLN, 24 h): 1.65e-07 M

O=C(NS(=O)(=O)c1cccc2nsnc12)c1cc2c(F)cc(N3CCC3)cc2o1 [Example 181, 6-(Azetidin-1-yl)-N-(2,1,3-benzothiadiazole-4-sulfonyl)-4-fluoro-1-benzofuran-2-carboxamide]
IC50 [1]: 89.5 nM
IC50 ([2]; MVLN, 24 h): 6.47e-07 M

COC(=O)Cc1ccc2c(S(=O)(=O)NC(=O)c3cc4c(F)cc(N5CCC5)cc4o3)cccc2c1 [Example 57, Methyl (5-{[6-(azetidin-1-yl)-4-fluoro-1-benzofuran-2-carbonyl]sulfamoyl}naphthalen-2-yl)acetate]
IC50 [1]: 120 nM
IC50 ([2]; MVLN, 24 h): 2.5e-06 M

O=C(NS(=O)(=O)c1cccc2c1OC(F)(F)C(F)(F)O2)c1cc2c(F)cc(N3CC(F)C3)cc2o1 [Example 159, 4-Fluoro-6-(3-fluoroazetidin-1-yl)-N-(2,2,3,3-tetrafluoro-2,3-dihydro-1,4-benzodioxine-5-sulfonyl)-1-benzofuran-2-carboxamide]
IC50 [1]: 34.3 nM
IC50 ([2]; MVLN, 24 h): 7.45e-07 M

O=C(NS(=O)(=O)c1cnn2c1OCCC2)c1cc2c(F)cc(N3CCC3)cc2o1 [Example 184, 6-(Azetidin-1-yl)-N-(6,7-dihydro-5H-pyrazolo[5,1-b][1,3]oxazine-3-sulfonyl)-4-fluoro-1-benzofuran-2-carboxamide]
IC50 [1]: 294 nM
IC50 ([2]; MVLN, 24 h): 5.21e-06 M

CCC(=O)Nc1cccc2c(S(=O)(=O)NC(=O)c3cc4c(F)cc(N5CCC5)cc4o3)cccc12 [Example 89, 6-(Azetidin-1-yl)-4-fluoro-N-(5-propanamidonaphthalene-1-sulfonyl)-1-benzofuran-2-carboxamide]
IC50 [1]: 269 nM
IC50 ([2]; MVLN, 24 h): > 2e-05 M

CCOc1ccccc1S(=O)(=O)NC(=O)c1cc2ccc(N3CC4(CCC4)C3)cc2o1 [Example 123, 6-(2-Azaspiro[3.3]heptan-2-yl)-N-(2-ethoxybenzene-1-sulfonyl)-1-benzofuran-2-carboxamide]
IC50 [1]: > 20000 nM
IC50 ([2]; MVLN, 24 h): > 2e-05 M

O=C(NS(=O)(=O)c1cnc2ccccn12)c1cc2c(F)cc(N3CCC3)cc2o1 [Example 186, 6-(Azetidin-1-yl)-4-fluoro-N-(imidazo[1,2-a]pyridine-3-sulfonyl)-1-benzofuran-2-carboxamide]
IC50 [1]: 1630 nM
IC50 ([2]; MVLN, 24 h): 1.7e-05 M

CCOc1cccc(C(C)C)c1S(=O)(=O)NC(=O)c1cc2c(F)cc(N3CCC3)cc2o1 [Example 23, 6-(Azetidin-1-yl)-N-[2-ethoxy-6-(propan-2-yl)benzene-1-sulfonyl]-4-fluoro-1-benzofuran-2-carboxamide]
IC50 [1]: 28.6 nM
IC50 ([2]; MVLN, 24 h): 2.72e-07 M

COc1cc(C)ccc1S(=O)(=O)NC(=O)c1cc2c(F)cc(N3CC(F)C3)cc2o1 [Example 158, 4-Fluoro-6-(3-fluoroazetidin-1-yl)-N-(2-methoxy-4-methylbenzene-1-sulfonyl)-1-benzofuran-2-carboxamide]
IC50 [1]: 25.7 nM
IC50 ([2]; MVLN, 24 h): 1.05e-07 M

Cn1nc(S(=O)(=O)NC(=O)c2cc3c(F)cc(N4CCC4)cc3o2)c2ccc(C(F)(F)F)nc21 [Example 144, 6-(Azetidin-1-yl)-4-fluoro-N-[1-methyl-6-(trifluoromethyl)-1H-pyrazolo[3,4-b]pyridine-3-sulfonyl]-1-benzofuran-2-carboxamide]
IC50 [1]: 548 nM
IC50 ([2]; MVLN, 24 h): 7.93e-06 M

COc1ccc(C2=CCN(C(=O)OC(C)(C)C)CC2)cc1S(=O)(=O)NC(=O)c1cc2c(F)cc(N3CCC3)cc2o1 [Example 197, tert-butyl 4-(3-{[6-(azetidin-1-yl)-4-fluoro-1-benzofuran-2-carbonyl]sulfamoyl}-4-methoxyphenyl)-3,6-dihydropyridine-1(2H)-carboxylate]
IC50 ([2]; MVLN, 24 h): 1.62e-07 M

CC(C)Oc1cccc(Br)c1S(=O)(=O)NC(=O)c1cc2c(F)cc(N3CCC3)cc2o1 [Example 39, 6-(Azetidin-1-yl)-N-{2-bromo-6-[(propan-2-yl)oxy]benzene-1-sulfonyl}-4-fluoro-1-benzofuran-2-carboxamide]
IC50 ([2]; MVLN, 24 h): 7.88e-07 M

CN(C(=O)Oc1ccccc1S(=O)(=O)NC(=O)c1cc2c(F)cc(N3CCC3)cc2o1)c1ccccc1 [Example 62, 2-{[6-(Azetidin-1-yl)-4-fluoro-1-benzofuran-2-carbonyl]sulfamoyl}phenyl methyl(phenyl)carbamate]
IC50 [2]: 6.43e-06 M
